Measurements as given in PubChem BioAssay AID1794820.

Target: Na(+)/dicarboxylate cotransporter 3 (Homo sapiens) (UniProt Q8WWT9)
Test: NaDC3 cotransporter activation by substrates – membrane potential dye, HEK-293 overexpressing cells, dose response (AID 1794820)
Conditions: HEK-293 SLC13A3 OE, FLIPR membrane potential dye

Sequence of Na(+)/dicarboxylate cotransporter 3 (Homo sapiens) (Q8WWT9 whole entry, looked up): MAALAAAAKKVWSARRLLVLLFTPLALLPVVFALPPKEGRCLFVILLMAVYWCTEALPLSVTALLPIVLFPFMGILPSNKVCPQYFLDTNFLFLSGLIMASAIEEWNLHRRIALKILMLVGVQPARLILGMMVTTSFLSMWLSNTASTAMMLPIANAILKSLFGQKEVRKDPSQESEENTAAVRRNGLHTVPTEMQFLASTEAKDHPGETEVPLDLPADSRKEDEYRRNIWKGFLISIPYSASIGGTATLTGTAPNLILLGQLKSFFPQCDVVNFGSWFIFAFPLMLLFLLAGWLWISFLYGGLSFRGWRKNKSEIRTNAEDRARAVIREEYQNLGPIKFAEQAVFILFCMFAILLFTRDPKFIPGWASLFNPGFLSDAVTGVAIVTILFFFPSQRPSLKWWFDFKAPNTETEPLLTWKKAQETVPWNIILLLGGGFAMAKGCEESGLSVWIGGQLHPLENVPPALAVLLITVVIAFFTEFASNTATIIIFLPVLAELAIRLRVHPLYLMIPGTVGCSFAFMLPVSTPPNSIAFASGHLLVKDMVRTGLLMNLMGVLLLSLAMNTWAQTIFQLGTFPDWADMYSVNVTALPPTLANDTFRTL

| Structure (SMILES) | EC50 [µM] |
| --- | --- |
| O=C(O)CCC(=O)O | 107 |
| O=C(O)CCC(=O)C(=O)O | 54 |
